Where a SMILES comes first, the peptide text is derived from it. Where no end group is shown, it is not given here. [ ]: non-standard residue; d: D form.
Key:
Format in all cases: cell-based
FPRL1 = biological target: T1, FPRL1 (Homo sapiens, UniProt P25090); assay: [Ca2+]i increase in FPRL1-expressing RBL-2H3 cells (fura-2); conditions: for EC50: fura-2 loaded, read-out: EC50 (nM), intracellular calcium increase
T1 construct: expressed in transfected cells; host or cells: RBL-2H3 (rat basophilic leukemia) cells, G418-selected
T1 sequence (P25090 1-351): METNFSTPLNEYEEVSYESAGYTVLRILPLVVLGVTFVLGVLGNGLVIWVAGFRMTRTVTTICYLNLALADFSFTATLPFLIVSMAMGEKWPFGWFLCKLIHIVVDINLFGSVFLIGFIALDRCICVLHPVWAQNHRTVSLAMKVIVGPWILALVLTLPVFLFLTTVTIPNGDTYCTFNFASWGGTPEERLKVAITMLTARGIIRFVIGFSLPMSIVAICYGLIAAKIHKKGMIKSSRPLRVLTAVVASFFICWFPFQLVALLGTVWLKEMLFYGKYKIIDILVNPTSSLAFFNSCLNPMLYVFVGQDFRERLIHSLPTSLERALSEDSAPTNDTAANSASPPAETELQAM
Method: […] The level of [Ca^2+]i was determined fluorometrically by Grynkiewicz's method using fura-2/AM (15). Briefly, prepared cells were incubated with 3 μM fura-2/AM at 37° C. for 50 min in a fresh serum-free RPMI 1640 medium under continuous stirring. 2×10^6 cells were aliquoted for each assay in Ca^2+-free Locke's solution (154 mM NaCl, 5.6 mM KCl, 1.2 mM MgCl2, 5 mM HEPES, pH 7.3, 10 mM glucose, and 0.2 mM EGTA). Fluorescence changes at the dual excitation wavelengths of 340 nm and 380 nm and the emission wavelength of 500 nm were measured, and the calibrated fluorescence ratio was translated into [Ca^2+]i. The peak level of the increased [Ca^2+]i was monitored.
[…] The level of [Ca^2+]i was determined by the same procedures as above. The peak level of the increased [Ca^2+]i was monitored.

FPR = biological target: T2, FPR (Homo sapiens, UniProt P21462); assay: [Ca2+]i increase in FPR-expressing RBL-2H3 cells (fura-2); conditions: for EC50 (nM), intracellular calcium increase / EC50: fura-2 loaded; for EC50: read-out: EC50 (nM), intracellular calcium increase
T2 construct: expressed in transfected cells; host or cells: RBL-2H3 (rat basophilic leukemia) cells, G418-selected
T2 sequence (P21462 1-350): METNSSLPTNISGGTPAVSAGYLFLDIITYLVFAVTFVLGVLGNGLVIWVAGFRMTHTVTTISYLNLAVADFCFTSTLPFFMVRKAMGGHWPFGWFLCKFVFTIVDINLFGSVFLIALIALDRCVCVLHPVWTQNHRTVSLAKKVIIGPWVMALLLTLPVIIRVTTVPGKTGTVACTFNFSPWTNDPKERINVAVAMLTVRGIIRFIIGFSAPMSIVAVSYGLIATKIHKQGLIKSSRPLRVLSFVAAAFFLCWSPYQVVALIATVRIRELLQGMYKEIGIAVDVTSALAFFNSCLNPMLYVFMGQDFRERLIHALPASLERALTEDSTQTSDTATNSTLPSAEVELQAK
Method: FPR-expressing RBL-2H3 cells were stimulated with 10 μM of each peptide, and [Ca^2+]i was determined. The level of [Ca^2+]i was determined fluorometrically by Grynkiewicz's method using fura-2/AM (15). Briefly, prepared cells were incubated with 3 μM fura-2/AM at 37° C. for 50 min in a fresh serum-free RPMI 1640 medium under continuous stirring. 2×10^6 cells were aliquoted for each assay in Ca^2+-free Locke's solution (154 mM NaCl, 5.6 mM KCl, 1.2 mM MgCl2, 5 mM HEPES, pH 7.3, 10 mM glucose, and 0.2 mM EGTA). Fluorescence changes at the dual excitation wavelengths of 340 nm and 380 nm and the emission wavelength of 500 nm were measured, and the calibrated fluorescence ratio was translated into [Ca^2+]i. The peak level of the increased [Ca^2+]i was monitored.

human neutrophils = assay: Superoxide generation in human neutrophils (cytochrome c reduction); conditions: for superoxide generating activity: 100 nM of peptides; for O^2− (nmol/10^6 cells), superoxide generation: cytochrome c reduction; for superoxide generation: 10 μM concentration
Method: Peripheral blood leukocyte concentrates were donated by the Ulsan Red Cross Blood Center (Ulsan, Korea). Human neutrophils were isolated according to the standard procedures of dextran sedimentation, hypotonic lysis of erythrocytes, and a lymphocyte separation medium gradient as described above (9). The isolated human neutrophils were then used promptly.
The activity of the peptides, WKYMVm, peptides of SEQ ID NOs: 1 to 24, and wkymvm on superoxide generation in human neutrophils was measured. Superoxide anion generation was quantified by measuring reduction of cytochrome c using a microtiter 96-well plate ELISA reader (Bio-Tekinstruments, EL312e, Winooski, Vt.) as described (14). The human neutrophils (1×10^6 cells/100 μl of RPMI 1640 medium per well of a 96-well plate) were preincubated with 50 μM cytochrome c at 37° C. for 1 min and then incubated with the indicated concentrations of peptides. The superoxide generation was measured as a change in light absorption at 550 nm over 5 minutes at 1 min intervals. From at least four independent experiments, peptides with active amino acids at each position were chosen.

Compound | EC50 (nM), intracellular calcium increase (FPR) | O^2− (nmol/10^6 cells), superoxide generation (human neutrophils; peptide 100 nM) | O^2− (nmol/10^6 cells), superoxide generation (human neutrophils; peptide 10 μM) | also measured
CSCC[C@H](NC(=O)[C@H](Cc1ccc(O)cc1)NC(=O)[C@@H](N)CCCCN)C(=O)N[C@H](C(N)=O)C(C)C [KYMV-NH2, Lys-Tyr-Met-Val-NH2] (H-KYMV-NH2) | inactive | – | – | EC50 (FPRL1): > 30000 nM
CSCC[C@H](NC(=O)[C@H](Cc1ccc(O)cc1)NC(=O)[C@@H](N)CCCCN)C(=O)N[C@H](C(=O)N[C@H](CCSC)C(N)=O)C(C)C [KYMVm-NH2, Lys-Tyr-Met-Val-D-Met-NH2] | – | 36.0 ± 3.56 nmol/10^6 cells | 49.2 ± 5.82 nmol/10^6 cells | superoxide generating activity (human neutrophils): stimulated superoxide generation
CSCC[C@H](N)C(=O)N[C@H](C(=O)N[C@H](CCSC)C(N)=O)C(C)C [MVm-NH2, Met-Val-D-Met-NH2] (H-Met-Val-[dM]-NH2) | inactive | – | – | EC50 (FPRL1): > 30000 nM
CSCC[C@H](NC(=O)[C@H](Cc1ccc(O)cc1)NC(=O)[C@H](CC(=O)O)NC(=O)[C@@H](N)Cc1c[nH]c2ccccc12)C(=O)N[C@H](C(=O)N[C@H](CCSC)C(N)=O)C(C)C [WDYMVm-NH2, Trp-Asp-Tyr-Met-Val-D-Met-NH2] (H-WDYMV[dM]-NH2; N-terminus assumed) | – | 25.8 ± 6.56 nmol/10^6 cells | 37.3 ± 5.66 nmol/10^6 cells | –
CSCC[C@H](NC(=O)[C@H](Cc1ccc(O)cc1)NC(=O)[C@H](CCC(=O)O)NC(=O)[C@@H](N)Cc1c[nH]c2ccccc12)C(=O)N[C@H](C(=O)N[C@H](CCSC)C(N)=O)C(C)C [WEYMVm-NH2, Trp-Glu-Tyr-Met-Val-D-Met-NH2] (H-WEYMV[dM]-NH2; N-terminus assumed) | – | 52.9 ± 12.78 nmol/10^6 cells | 35.3 ± 2.88 nmol/10^6 cells | superoxide generating activity (human neutrophils): stimulated superoxide generation
CSCC[C@H](NC(=O)[C@H](Cc1ccc(O)cc1)NC(=O)[C@H](Cc1c[nH]cn1)NC(=O)[C@@H](N)Cc1c[nH]c2ccccc12)C(=O)N[C@H](C(=O)N[C@H](CCSC)C(N)=O)C(C)C [WHYMVm-NH2, Trp-His-Tyr-Met-Val-D-Met-NH2] (H-WHYMV[dM]-NH2; N-terminus assumed) | – | 20.7 ± 7.85 nmol/10^6 cells | 20.7 ± 7.85 nmol/10^6 cells | [Ca^2+]i increasing activity (FPR): more improved affinity for the FPR against the peptide WKYMVm
CSCC[C@H](NC(=O)[C@H](CC(=O)O)NC(=O)[C@H](CCCCN)NC(=O)[C@@H](N)Cc1c[nH]c2ccccc12)C(=O)N[C@H](C(=O)N[C@H](CCSC)C(N)=O)C(C)C [WKDMVm-NH2, Trp-Lys-Asp-Met-Val-D-Met-NH2] (H-WKDMV[dM]-NH2; N-terminus assumed) | – | 16.3 ± 1.67 nmol/10^6 cells | 37.3 ± 2.78 nmol/10^6 cells | EC50 (FPR): 1330 ± 207 nM
CSCC[C@H](NC(=O)[C@H](CCC(=O)O)NC(=O)[C@H](CCCCN)NC(=O)[C@@H](N)Cc1c[nH]c2ccccc12)C(=O)N[C@H](C(=O)N[C@H](CCSC)C(N)=O)C(C)C [WKEMVm-NH2, Trp-Lys-Glu-Met-Val-D-Met-NH2] (H-WKEMV[dM]-NH2; N-terminus assumed) | – | 4.1 ± 0.21 nmol/10^6 cells | 39.2 ± 4.71 nmol/10^6 cells | EC50 (FPR): 1330 ± 88.8 nM
CSCC[C@H](NC(=O)[C@H](Cc1ccccc1)NC(=O)[C@H](CCCCN)NC(=O)[C@@H](N)Cc1c[nH]c2ccccc12)C(=O)N[C@H](C(=O)N[C@H](CCSC)C(N)=O)C(C)C [WKFMVm-NH2, Trp-Lys-Phe-Met-Val-D-Met-NH2] (H-WKFMV[dM]-NH2; N-terminus assumed) | – | 37.3 ± 3.56 nmol/10^6 cells | 60.2 ± 5.57 nmol/10^6 cells | [Ca^2+]i increasing activity (FPRL1): higher affinity to FPRL1; [Ca^2+]i increasing activity (FPR): more improved affinity for the FPR against the peptide WKYMVm; superoxide generating activity (human neutrophils): stimulated superoxide generation; superoxide generation (human neutrophils): more potent activity than WKYMVm
CSCC[C@H](NC(=O)[C@H](Cc1c[nH]cn1)NC(=O)[C@H](CCCCN)NC(=O)[C@@H](N)Cc1c[nH]c2ccccc12)C(=O)N[C@H](C(=O)N[C@H](CCSC)C(N)=O)C(C)C [WKHMVm-NH2, Trp-Lys-His-Met-Val-D-Met-NH2] (H-WKHMV[dM]-NH2; N-terminus assumed) | – | 29.5 ± 7.71 nmol/10^6 cells | 39.3 ± 4.10 nmol/10^6 cells | –
CSCC[C@H](NC(=O)[C@H](Cc1ccc(O)cc1)NC(=O)[C@H](CCCCN)NC(=O)[C@@H](N)Cc1c[nH]c2ccccc12)C(=O)N[C@@H](Cc1ccc(O)cc1)C(=O)N[C@H](CCSC)C(N)=O [WKYMYm-NH2, Trp-Lys-Tyr-Met-Tyr-D-Met-NH2] (H-WKYMY[dM]-NH2; N-terminus assumed) | – | 25.8 ± 3.89 nmol/10^6 cells | 42.9 ± 3.34 nmol/10^6 cells | [Ca^2+]i increasing activity (FPRL1): higher affinity to FPRL1
CSCC[C@H](NC(=O)[C@@H](N)Cc1ccc(O)cc1)C(=O)N[C@H](C(=O)N[C@H](CCSC)C(N)=O)C(C)C [YMVm-NH2, Tyr-Met-Val-D-Met-NH2] (H-YMV[dM]-NH2; N-terminus assumed) | – | 30.2 ± 2.74 nmol/10^6 cells | 41.8 ± 3.46 nmol/10^6 cells | –
Trp-Lys-Tyr-Met-(Phe/Trp)-D-Met-NH2 [WKYM(F/W)m-NH2] | – | 6.1 ± 0.77 nmol/10^6 cells | 45.6 ± 7.76 nmol/10^6 cells | [Ca^2+]i increasing activity (FPRL1): higher affinity to FPRL1
WKYMV-NH2 [WKYMV-NH2, Trp-Lys-Tyr-Met-Val-NH2] | inactive | 9.2 ± 0.55 nmol/10^6 cells | 25.6 ± 2.20 nmol/10^6 cells | –
WKYMVG-NH2 [WKYMVG-NH2, Trp-Lys-Tyr-Met-Val-Gly-NH2] | inactive | 4.4 ± 0.54 nmol/10^6 cells | 27.3 ± 1.40 nmol/10^6 cells | –
WKYMVV-NH2 [WKYMVV-NH2, Trp-Lys-Tyr-Met-Val-Val-NH2] | inactive | 5.0 ± 0.21 nmol/10^6 cells | 36.3 ± 2.29 nmol/10^6 cells | –
WKYMVW-NH2 [WKYMVW-NH2, Trp-Lys-Tyr-Met-Val-Trp-NH2] | inactive | 11.5 ± 1.62 nmol/10^6 cells | 56.8 ± 4.60 nmol/10^6 cells | superoxide generation (human neutrophils): more potent activity than WKYMVm
